# Experimental data taken from patent US20210130346A1, “Bromodomain Inhibitors” (AbbVie Inc., priority 2017, published 2021).
# Target: BRD4 (BDI_K57-E168) (Homo sapiens, UniProt O60885)
# Assay: TR-FRET bromodomain binding assay, BRD4 first bromodomain (BDI)
# Conditions: mean Ki; 12 nM His tagged BRD4 (BDI_K57-E168), 100 nM Alexa647 probe; Ki calculated from IC50, probe Kd and probe concentration
# Description: A time-resolved fluorescence resonance energy transfer (TR-FRET) assay was used to determine the affinities of compounds of the Examples listed in Table 1 for each bromodomain of BRD4. […] An Alexa647-labeled BET-inhibitor was used as the fluorescent probe in the assay.
# Compound dilution series were prepared in DMSO via an approximately 3-fold serial dilution. Compound dilutions were added directly into white, low-volume assay plates (Perkin Elmer Proxiplate 384 Plus# 6008280) using a Labcyte Echo in conjunction with Labcyte Access and Thermo Multidrop CombinL robotics. Compounds were then suspended in eight microliters (μL) of assay buffer (20 mM Sodium Phosphate, pH 6.0, 50 mM NaCl, 1 mM Ethylenediaminetetraacetic acid disodium salt dihydrate, 0.01% Triton X-100, 1 mM DL-Dithiothreitol) containing His-tagged bromodomain, Europium-conjugated anti-His antibody (Invitrogen PV5596) and Alexa-647-conjugated probe.
# After a one-hour equilibration at room temperature, TR-FRET ratios were determined using an Envision multilabel plate reader (Ex 340, Em 495/520).
# TR-FRET data were normalized to the means of 24 no-compound controls (“high”) and 8 controls containing 1 μM un-labeled probe (“low”). Percent inhibition was plotted as a function of compound concentration and the data were fit with the 4 parameter logistic equation to obtain IC50s. Inhibition constants (Ki) were calculated from the IC50s, probe Kd and probe concentration.
row,SMILES,Ki [µM]
1,"CN1C(=O)[C@@]2(C[C@H]2c2cn(C)c(=O)c3[nH]c(-c4ccccn4)cc23)c2ccccc21 (racemic) [Example 45, rac-(1R,2S)-1′-methyl-2-[6-methyl-7-oxo-2-(pyridin-2-yl)-6,7-dihydro-1H-pyrrolo[2,3-c]pyridin-4-yl]spiro[cyclopropane-1,3′-indol]-2′(1H)-one]",> 13
2,"Cc1ccnc(-c2cc3c([C@@H]4C[C@@]45C(=O)N(C)c4ccccc45)cn(C)c(=O)c3[nH]2)c1 (racemic) [Example 46, rac-(1R,2S)-1′-methyl-2-[6-methyl-2-(4-methylpyridin-2-yl)-7-oxo-6,7-dihydro-1H-pyrrolo[2,3-c]pyridin-4-yl]spiro[cyclopropane-1,3′-indol]-2′(1H)-one]",> 13
3,"CN1C(=O)[C@@]2(C[C@H]2c2cn(C)c(=O)c3[nH]c(-c4cccnc4)cc23)c2ccccc21 (racemic) [Example 47, rac-(1R,2S)-1′-methyl-2-[6-methyl-7-oxo-2-(pyridin-3-yl)-6,7-dihydro-1H-pyrrolo[2,3-c]pyridin-4-yl]spiro[cyclopropane-1,3′-indol]-2′(1H)-one]",2.62
4,"CN1C(=O)[C@@]2(C[C@H]2c2cn(C)c(=O)c3[nH]c(-c4ccncc4)cc23)c2ccccc21 (racemic) [Example 50, rac-(1R,2S)-1′-methyl-2-[6-methyl-7-oxo-2-(pyridin-4-yl)-6,7-dihydro-1H-pyrrolo[2,3-c]pyridin-4-yl]spiro[cyclopropane-1,3′-indol]-2′(1H)-one]",1.28
5,"CN1C(=O)[C@@]2(C[C@H]2c2cn(C)c(=O)c3[nH]c(-c4ccnc(C(F)(F)F)c4)cc23)c2ccccc21 (racemic) [Example 51, rac-(1R,2S)-1′-methyl-2-{6-methyl-7-oxo-2-[2-(trifluoromethyl)pyridin-4-yl]-6,7-dihydro-1H-pyrrolo[2,3-c]pyridin-4-yl}spiro[cyclopropane-1,3′-indol]-2′(1H)-one]",4.68
6,"CN1C(=O)[C@@]2(C[C@H]2c2cn(C)c(=O)c3[nH]c(-c4cncnc4)cc23)c2ccccc21 (racemic) [Example 54, rac-(1R,2S)-1′-methyl-2-[6-methyl-7-oxo-2-(pyrimidin-5-yl)-6,7-dihydro-1H-pyrrolo[2,3-c]pyridin-4-yl]spiro[cyclopropane-1,3′-indol]-2′(1H)-one]",1.08
7,"CN1C(=O)[C@@]2(C[C@H]2c2cn(C)c(=O)c3[nH]c(-c4ccncn4)cc23)c2ccccc21 (racemic) [Example 55, rac-(1R,2S)-1′-methyl-2-[6-methyl-7-oxo-2-(pyrimidin-4-yl)-6,7-dihydro-1H-pyrrolo[2,3-c]pyridin-4-yl]spiro[cyclopropane-1,3′-indol]-2′(1H)-one]",3.42
8,"CN1C(=O)[C@@]2(C[C@@]2(C)c2cn(C)c(=O)c3[nH]c(C(=O)NC4CC4)cc23)c2ccc(OC(F)(F)F)cc21 (racemic) [Example 58, rac-N-cyclopropyl-4-[(1R,2S)-1′,2-dimethyl-2′-oxo-6′-(trifluoromethoxy)-1′,2′-dihydrospiro[cyclopropane-1,3′-indol]-2-yl]-6-methyl-7-oxo-6,7-dihydro-1H-pyrrolo[2,3-c]pyridine-2-carboxamide]",> 13
9,"CN1C(=O)[C@@]2(C[C@H]2c2cn(C)c(=O)c3[nH]c(C(=O)NC4CC4)cc23)c2cc(F)ccc21 (single isomer, unassigned) [Example 18]",> 13
10,"Cn1cc([C@H]2C[C@]23C(=O)Nc2ccccc23)c2cc(C(=O)NC3CC3)[nH]c2c1=O (single isomer, unassigned) [Example 20]",7.34
11,"Cn1cc([C@@H]2C[C@@]23C(=O)Nc2ccccc23)c2cc(C(=O)NC3CC3)[nH]c2c1=O (single isomer, unassigned) [Example 21]",> 13
12,"CN1C(=O)[C@]2(C[C@@H]2c2cn(C)c(=O)c3[nH]c(C(=O)NC4CC4)cc23)c2cc(F)ccc21 [Example 17, N-cyclopropyl-4-[(1S,2R)-5′-fluoro-′-methyl-2′-oxo-1′,2′-dihydrospiro[cyclopropane-1,3′-indol]-2-yl]-6-methyl-7-oxo-6,7-dihydro-1H-pyrrolo[2,3-c]pyridine-2-carboxamide]",5.04
13,"Cn1cc([C@H]2C[C@]23C(=O)N(CC(F)(F)F)c2ccccc23)c2cc(C(=O)NC3CC3)[nH]c2c1=O [Example 24, N-cyclopropyl-6-methyl-7-oxo-4-[(1S,2R)-2′-oxo-′-(2,2,2-trifluoroethyl)-1′,2′-dihydrospiro[cyclopropane-1,3′-indol]-2-yl]-6,7-dihydro-1H-pyrrolo[2,3-c]pyridine-2-carboxamide]",4.21
14,"Cn1cc([C@@H]2C[C@@]23C(=O)N(CC(F)(F)F)c2ccccc23)c2cc(C(=O)NC3CC3)[nH]c2c1=O [Example 25, N-cyclopropyl-6-methyl-7-oxo-4-[(1R,2S)-2′-oxo-′-(2,2,2-trifluoroethyl)-1′,2′-dihydrospiro[cyclopropane-1,3′-indol]-2-yl]-6,7-dihydro-1H-pyrrolo[2,3-c]pyridine-2-carboxamide]",> 13

# The remaining lines, values ahead:
row,Ki [µM],SMILES
1,> 13,"Cc1cc(-c2cc3c([C@H]4C[C@@]45C(=O)N(C)c4ccccc45)cn(C)c(=O)c3[nH]2)on1 (racemic) [Example 40, rac-(1R,2R)-1′-methyl-2-[6-methyl-2-(3-methyl-1,2-oxazol-5-yl)-7-oxo-6,7-dihydro-1H-pyrrolo[2,3-c]pyridin-4-yl]spiro[cyclopropane-1,3′-indol]-2′(1H)-one]"
2,1.49,"CN1C(=O)[C@@]2(C[C@H]2c2cn(C)c(=O)c3[nH]c(-c4nccn4C)cc23)c2ccccc21 (racemic) [Example 41, rac-(1R,2S)-1′-methyl-2-[6-methyl-2-(1-methyl-1H-imidazol-2-yl)-7-oxo-6,7-dihydro-1H-pyrrolo[2,3-c]pyridin-4-yl]spiro[cyclopropane-1,3′-indol]-2′(1H)-one]"
3,2.82,"CN1C(=O)[C@@]2(C[C@H]2c2cn(C)c(=O)c3[nH]c(-c4ncco4)cc23)c2ccccc21 (racemic) [Example 42, rac-(1R,2S)-1′-methyl-2-[6-methyl-2-(1,3-oxazol-2-yl)-7-oxo-6,7-dihydro-1H-pyrrolo[2,3-c]pyridin-4-yl]spiro[cyclopropane-1,3′-indol]-2′(1H)-one]"
4,1.84,"CN1C(=O)[C@@]2(C[C@H]2c2cn(C)c(=O)c3[nH]c(-c4cn(C)cn4)cc23)c2ccccc21 (racemic) [Example 43, rac-(1R,2S)-1′-methyl-2-[6-methyl-2-(1-methyl-1H-imidazol-4-yl)-7-oxo-6,7-dihydro-1H-pyrrolo[2,3-c]pyridin-4-yl]spiro[cyclopropane-1,3′-indol]-2′(1H)-one]"
5,1.3,"CN1C(=O)[C@@]2(C[C@H]2c2cn(C)c(=O)c3[nH]c(-c4cncn4C)cc23)c2ccccc21 (racemic) [Example 44, rac-(1R,2S)-1′-methyl-2-[6-methyl-2-(1-methyl-1H-imidazol-5-yl)-7-oxo-6,7-dihydro-1H-pyrrolo[2,3-c]pyridin-4-yl]spiro[cyclopropane-1,3′-indol]-2′(1H)-one]"
6,2.76,"CN1C(=O)[C@@]2(C[C@H]2c2cn(C)c(=O)c3[nH]c(-c4ccnnc4)cc23)c2ccccc21 (racemic) [Example 56, rac-(1R,2S)-1′-methyl-2-[6-methyl-7-oxo-2-(pyridazin-4-yl)-6,7-dihydro-1H-pyrrolo[2,3-c]pyridin-4-yl]spiro[cyclopropane-1,3′-indol]-2′(1H)-one]"
7,> 13,"CN1C(=O)[C@]2(C[C@@H]2c2cn(C)c(=O)c3[nH]c(C(=O)O)cc23)c2ccccc21 (single isomer, unassigned) [Example 6]"
8,> 13,"CN1C(=O)[C@@]2(C[C@H]2c2cn(C)c(=O)c3[nH]c(C(=O)O)cc23)c2ccccc21 (single isomer, unassigned) [Example 7]"
9,> 13,"CN1C(=O)[C@@]2(C[C@H]2c2cn(C)c(=O)c3[nH]c(C(=O)NC4CC4)cc23)c2ccccc21 [Example 4, N-cyclopropyl-6-methyl-4-[(1R,2S)-1′-methyl-2′-oxo-1′,2′-dihydrospiro[cyclopropane-1,3′-indol]-2-yl]-7-oxo-6,7-dihydro-1H-pyrrolo[2,3-c]pyridine-2-carboxamide]"
10,1.3,"CN1C(=O)[C@@]2(C[C@H]2c2cn(C)c(=O)c3[nH]c(-c4cnn(C)c4)cc23)c2ccccc21 [Example 35, (1R,2S)-1′-methyl-2-[6-methyl-2-(1-methyl-1H-pyrazol-4-yl)-7-oxo-6,7-dihydro-1H-pyrrolo[2,3-c]pyridin-4-yl]spiro[cyclopropane-1,3′-indol]-2′(1H)-one]"
11,1.42,"CN1C(=O)[C@]2(C[C@@H]2c2cn(C)c(=O)c3[nH]c(-c4cccnc4)cc23)c2ccccc21 [Example 48, (1S,2R)-1′-methyl-2-[6-methyl-7-oxo-2-(pyridin-3-yl)-6,7-dihydro-1H-pyrrolo[2,3-c]pyridin-4-yl]spiro[cyclopropane-1,3′-indol]-2′(1H)-one]"
12,4.14,"CN1C(=O)[C@@]2(C[C@H]2c2cn(C)c(=O)c3[nH]c(-c4cccnc4)cc23)c2ccccc21 [Example 49, (1R,2S)-1′-methyl-2-[6-methyl-7-oxo-2-(pyridin-3-yl)-6,7-dihydro-1H-pyrrolo[2,3-c]pyridin-4-yl]spiro[cyclopropane-1,3′-indol]-2′(1H)-one]"
